Data: patent publication US12350782B2, “Method for producing stable-phase crystals using physical grinding” (University-Industry Cooperation Group of Kyung Hee …, priority 2021, dated 2025)
Like-named read-outs stand apart in the source and are kept apart here.

Details: for phase-transformed into gamma-glycine: after 24 hours

SMILES: NCC(=O)O [alpha-glycine, glycine]
- phase-transformed into gamma-glycine (100 g glass beads 1.7 to 2.0 mm, 300 g group 1, 500 rpm): 100%
- gamma-glycine (stable phase crystal) obtained (glass beads 1.7 to 2.0 mm, about 100 to 200 g, 300 rpm, stirred/ground 24-48 hours, groups 1 to 6): 100%
- time after which supersaturation of stable phase crystals (gamma-glycine) increased (magnetic bar in propeller stirring device, 300 rpm): about 1,500 minutes
- stable phase crystals obtained (magnetic bar stirred/ground at 300 rpm for about 65 hours or more (6,800 minutes)): 100%
- stable phase crystal (gamma-glycine) precipitation rate (simple propeller stirrer, no physical grinding, 300 g, 300 rpm, about 15 days, groups 1 to 6 of Table 1): 0%
- phase transformation from alpha-glycine to gamma-glycine (zirconia beads 5.0 to 7.0 mm, 100 rpm, 24 hours plus further 48 hours stirring): 100%
- phase-transformed into gamma-glycine (zirconia beads 5.0 to 7.0 mm, 300 g group 1, 100 rpm): 0%
